Measurements: patent US20110257107A1, “Compounds for Delivering Amino Acids or Peptides with Antioxidant Activity into Mitochondria” (University of Rochester, priority 2006, published 2011)
Entries after “also recorded” stand apart in the source; their conditions may differ. Read-outs that look alike come from different tables or passages of the source.

Legend:
[1] = test system: spinal cord neurons; assay: H202-induced apoptosis (condensed and fragmented nuclei) in cultured spinal cord neurons; type: cell-based
Description: Central to the therapeutic intervention of spinal cord injury is the belief that spinal cord neurons undergo apoptosis and possibly necrosis under oxidative stress. […] In contrast, control neurons show predominantly diffuse nuclear staining. […] This percentage increased to ˜58% for 500 μM H2O2. […] In contrast, immunoreactivity to cytochrome C oxidase (COX), a marker in the inner mitochondrial membrane remained independent of the mitochondrial insults by H202. The differential staining between cytochrome C and COX affords a secondary method to assess whether a given neuron has undergone mitochondrial permeability transition (MPT).

[2] = test system: cultured neonatal rat ventricular myocytes; assay: H202-induced depolarization of mitochondrial membrane potential (TMRE) in cardiac myocytes; type: cell-based; details: 50 μM H202; for onset of H202-induced depolarization and loss of TMRE fluorescence: pretreatment 50 μM or 100 μM for 30 minutes
Description: TMRE is a lipophilic cation that partitions selectively into the negatively charged mitochondria. Neonatal cultured myocytes (6 days in culture) were loaded with 10 nM TMRE for 60 minutes at 37° C. […] As a control, myocytes were not pretreated with any drug. TMRE was excited at 555 nm and fluorescence emission was detected at 590 nm. Fluorescence images were taken every 2 minutes. At the arrow (FIG. 3), myocytes were subjected to oxidative stress by adding 50 μM H202. Plots were normalized to baseline, and are shown as F/F0, where F is the emitted fluorescence at any given time and F0 is the baseline fluorescence before addition of H202. […] The traces were drawn from the mean values of 7-10 experiments.
TMRE was used as an indicator of mitochondrial membrane potential. The myocytes were pretreated with 50 μM Mito GSH for 30 minutes and then washed to remove the antioxidant from the solution in which myocytes were suspended. In control, myocytes were not pretreated with any drug. TMRE was excited at 555 run and fluorescence emission was detected at 590 nm. Fluorescence images were taken every 2 minutes to avoid photobleaching and phototoxicity. Myocytes were subjected to oxidative stress by adding 50 μM H202.

[3] = test system: brain striatal neurons; assay: NMDA-induced depolarization of mitochondrial membrane (TMRE) in striatal neurons; type: cell-based; details: pretreatment 50 μm for 30 minutes; NMDA (100 μM)
Description: The effects of mitochondrial-targeted antioxidants upon onset of NMDA (100 μM) induced depolarization of mitochondrial membrane of brain striatal neurons are summarized in Table 1.
Tetramethylrhodamine methyl ester (TMRE) was used as an indicator of mitochondrial membrane potential. […] Control neurons were not pretreated with any drug.

[4] = test system: Rat heart mitochondria; details: pretreatment 5 mM for 30 minutes, 5 μM rotenone and 100 μM t-BuOOH
Description: Mitochondrial membrane potential was measured by safranine. Safranine is a positively charged dye that accumulates in mitochondria on establishment of an electrical potential across the mitochondrial inner membrane. However, its fluorescence is quenched by its accumulation in mitochondria in response to mitochondrial membrane potential. Rat heart mitochondria (0.2 mg protein/200 μl) were transferred to a well containing 0.3 ml of 150 mM KCl, 5 mM HEPES, 15, μM safranine, 5 mM succinate buffer, 5 μM rotenone and 100 μM t-BuOOH. The mitochondria were placed in a multiplate reader.
Fluorescence measurements were made with excitation and emission wavelengths of 485 and 585 nm, respectively.

[5] = test system: rat heart; assay: Post-ischemic recovery in Langendorff perfused rat heart; parameters: species or system Sprague-Dawley rat; details: 50 μM for 10 minutes prior to ischemia
Description: Following an equilibration period of approximately 25 minutes, global normothermic ischemia was imposed for 25 minutes, followed by reperfusion for 30 minutes.

In the case of `C=CC(O)CC(=O)O` (centres unmarked) [Compound 3-HP, 3-hydroxy-4-pentenoate], the “percentage of cells showing condensed and fragmented nuclei” value ([1]; 3-HP depletion of mitochondrial glutathione prior to 250 μM H202 treatment) is reported as 70%.
`OO` [Compound H202, hydrogen peroxide] was tested, and the “neurons with condensed and fragmented nuclei” value ([1]; 250 μM H202) was roughly 42% and the “neurons with condensed and fragmented nuclei” value ([1]; 500 μM H2O2) was roughly 58%.
In the case of `N[C@@H](CCC(=O)N[C@@H](CS)C(=O)NCC(=O)O)C(=O)O` [Glutathione, L-γ-glutamyl-L-cysteinylglycine, reference compound], the “time for onset of H202-induced depolarization” value ([2]; pretreatment 100 μM non-targeted glutathione) is reported as “did not significantly increase the time for onset of H202-induced depolarization”.
With `C[N+](C)(C)CCOC(=O)CNC(=O)[C@H](CS)NC(=O)CC[C@H](N)C(=O)O.[Cl-]` [Mito GSH, Glutathione choline ester chloride] the “Time of Onset of Depolarization” value [3] was 17.5 ± 2.1 min, the “time TMRE fluorescence persisted after H202 treatment” value ([2]; pretreatment 50 μM for 30 minutes) was 50 min and the “onset of H202-induced depolarization and loss of TMRE fluorescence” value [2] was “delayed onset of H202-induced depolarization and loss of TMRE fluorescence; also recorded: significantly enhanced the time for onset of H202-induced depolarization; also recorded: delay the onset of H202-induced depolarization”. For the same compound, the “time for onset of H202-induced depolarization” value ([2]; pretreatment 100 μM) was 53 ± 3.6 min.
With `CC(=O)N[C@@H](CS)C(=O)OCC[N+](C)(C)C` [Mito NAC, N,S-acetyl-L-cysteine choline ester] the “Time of Onset of Depolarization” value [3] was 20.5 ± 3.6 min, the “onset of H202-induced depolarization and loss of TMRE fluorescence” value [2] was “delayed onset of H202-induced depolarization and loss of fluorescence” and the “onset of H202-induced depolarization and loss of TMRE fluorescence” value ([2]; listed as mito NAC) was “delay the onset of H202-induced depolarization”.
With `CC(=O)N[C@@H](CS)C(=O)OCC[N+](C)(C)C` [N-acetyl cysteine choline ester, N-acetyl-L-cysteine choline ester] the “release of intramitochondrial safranine (depolarization of mitochondrial membrane potential)” value (“release of intramitochondrial safranine” below) ([4]; listed as NAC CE) was “minimize the depolarization of mitochondrial membrane potential”.
`CC(=O)N[C@@H](CS)C(=O)O` [N-acetyl cysteine, N-acetyl-L-cysteine] was tested, and the “onset of ischemic contracture” value [5] was “appeared to delay the onset of ischemic contracture”, the “Overall recovery of left-ventricular developed pressure” value ([5]; 25 minutes ischemia, 30 minutes reperfusion) was 15.7% and the “Time of Onset of Depolarization” value [3] was 10.5 ± 1.9 min.
`C[N+](C)(C)CCOC(=O)[C@@H](N)CS.[Cl-]` [cysteine choline ester, [2-(2-Amino-3-mercapto-L-propionyloxy)ethyl]trimethylammonium chloride] was tested, and the “release of intramitochondrial safranine” value [4] was “diminished the release of intramitochondrial safaranine” and the “release of intramitochondrial safranine” value ([4]; listed as CYS CE) was “minimize the depolarization of mitochondrial membrane potential”.
